Key:
human D2R/β-arrestin [1] = target: T1, human D2R/β-arrestin (Homo sapiens (Human), UniProt P14416); test: β-arrestin agonist assay (PathHunter); assay type: cell-based; conditions: CHO-K1 cells expressing human D2R/β-arrestin; agonist mode
Procedure: The detection reagent (9.6 μL, Buffer:Emerald II:Galactor-Star in a 19:5:1 ratio, i.e., 14.06 mL:3.7 mL:0.74 mL=18.5 mL) was then added to the agonist plates.

human D2R/β-arrestin [2] = target: T1, human D2R/β-arrestin; test: Gi/cAMP agonist assay (Lance Ultra cAMP, forskolin); assay type: cell-based; conditions: CHO-K1 cells expressing human D2R/β-arrestin; agonist mode, 2.5 μM forskolin
Procedure: Eu-cAMP tracer solution (10 μl, PerkinElmer, 360 μl of Tracer in 17.64 ml kit buffer) and ULight-anti-cAMP solution (10 μl, 120 μL antibody in 17.88 ml kit buffer) was then added to each well.

human D2R/β-arrestin [3] = target: T1, human D2R/β-arrestin; test: cell-based; conditions: β-arrestin Antagonist, CHO-K1 cells expressing human D2R/β-arrestin; antagonist mode, quinpirole 130 nM
human D2R/β-arrestin [4] = target: T1, human D2R/β-arrestin; test: cell-based; conditions: cAMP Antagonist, CHO-K1 cells expressing human D2R/β-arrestin; antagonist mode, 2.5 μM forskolin and 2.7 nM quinpirole

T1 sequence (P14416 whole entry): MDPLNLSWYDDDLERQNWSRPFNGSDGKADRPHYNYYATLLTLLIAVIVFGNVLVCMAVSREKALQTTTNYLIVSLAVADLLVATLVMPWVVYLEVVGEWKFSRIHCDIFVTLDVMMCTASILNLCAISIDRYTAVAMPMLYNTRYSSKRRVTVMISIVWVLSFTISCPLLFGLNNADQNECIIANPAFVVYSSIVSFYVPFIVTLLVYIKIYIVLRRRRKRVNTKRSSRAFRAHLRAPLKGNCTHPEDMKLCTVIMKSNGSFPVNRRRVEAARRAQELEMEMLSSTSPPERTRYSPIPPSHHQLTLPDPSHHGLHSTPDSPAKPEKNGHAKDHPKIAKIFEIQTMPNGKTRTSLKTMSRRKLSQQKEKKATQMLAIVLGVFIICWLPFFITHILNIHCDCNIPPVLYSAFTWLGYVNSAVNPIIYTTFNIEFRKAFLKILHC

Row | Structure (SMILES) | EC50 (human D2R/β-arrestin [1]) [µM] | EC50 (human D2R/β-arrestin [2]) [µM] | IC50 (human D2R/β-arrestin [3]) [µM] | IC50 (human D2R/β-arrestin [4]) [µM]
1 | Cc1cccc(OCCN2CCC(C)(Oc3ccc(Cl)cc3)C2)c1 (stereo not drawn) [Compound 11, 3-(4-chlorophenoxy)-3-methyl-1-(2-(m-tolyloxy)ethyl)pyrrolidine] | > 30 | < 0.1 | 1 to 10 | 0.1 to 1
2 | O=[N+]([O-])c1ccc(OC2(c3ccccc3)CCN(CCOc3ccccc3)C2)cc1 (stereo not drawn) [Example 94, 3-(4-nitrophenoxy)-1-(2-phenoxyethyl)-3-phenylpyrrolidine] | > 30 | 0.1 to 1 | 1 to 10 | 1 to 10
3 | Cc1ccc(OCCN2CCC(C)(Oc3ccc(Cl)cc3)CC2)cc1 [Compound 150, 4-(4-chlorophenoxy)-4-methyl-1-(2-(p-tolyloxy)ethyl)piperidine] | 0.1 to 1 | < 0.1 | > 30 | > 30
4 | CC1(Oc2ccc(Cl)cc2)CCN(CCOc2ccccc2Cl)C1 (stereo not drawn) [Compound 5, 3-(4-chlorophenoxy)-1-(2-(2-chlorophenoxy)ethyl)-3-methylpyrrolidine] | > 30 | > 30 | 0.1 to 1 | < 0.1
5 | CC1(Cc2ccc(Cl)cc2)CCN(CCOc2ccccc2C(F)(F)F)CC1 [Compound 215, 4-(4-chlorobenzyl)-4-methyl-1-(2-(2-(trifluoromethyl)phenoxy)ethyl)piperidine] | 1 to 10 | 1 to 10 | 1 to 10 | 10 to 30
6 | C[C@]1(O)C[C@H]2CC[C@@H](C1)N2CCOc1ccccc1C(F)(F)F [Compound 133, 3-methyl-8-(2-(2-(trifluoromethyl)phenoxy)ethyl)-8-azabicyclo[3.2.1] octan-3-ol] | > 30 | > 30 | 0.1 to 1 | 0.1 to 1
7 | CC1(Oc2cccc(C(F)(F)F)c2)CCCN(CCOc2ccccc2F)C1 (stereo not drawn) [Example 61, 1-(2-(2-Fluorophenoxy)ethyl)-3-methyl-3-(3-(trifluoromethyl)phenoxy) piperidine] | > 30 | > 30 | 1 to 10 | 0.1 to 1
8 | c1ccc(OCCN2CCC3(Cc4ccccc4O3)C2)cc1 (stereo not drawn) [Compound 181, 1′-(2-phenoxyethyl)-3H-spiro[benzofuran-2,3′-pyrrolidine]] | > 30 | > 30 | 1 to 10 | < 0.1
9 | CC1(Oc2ccc(Cl)cc2)CCN(CCOc2ccc3ncccc3c2)C1 (stereo not drawn) [Compound 32] | > 30 | 0.1 to 1 | 1 to 10 | > 30
10 | CC1(Oc2ccc(Cl)cc2)CCN(CCCCOc2ccc3ncsc3c2)C1 (stereo not drawn) [Compound 29, 6-(4-(3-(4-chlorophenoxy)-3-methylpyrrolidin-1-yl)butoxy)benzo[d]thiazole] | > 30 | > 30 | 1 to 10 | 1 to 10
11 | CC1(Oc2ccc(Cl)cc2)CCN(CCCCOc2ccccc2)CC1 [Compound 120, 4-(4-chlorophenoxy)-4-methyl-1-(4-phenoxybutyl)piperidine] | > 30 | 1 to 10 | 10 to 30 | > 30
12 | CC1(Oc2ccccc2)CCN(C(C)(C)COc2ccccc2C(F)(F)F)CC1 [Example 80, 4-methyl-1-(2-methyl-1-(2-(trifluoromethyl)phenoxy)propan-2-yl)-4-phenoxypiperidine] | > 30 | 10 to 30 | 1 to 10 | 1 to 10
13 | CC1(Oc2ccc(Cl)cc2)CCN(CCOc2ccc(C(F)(F)F)cn2)CC1 [Compound 148, 2-(2-(4-(4-chlorophenoxy)-4-methylpiperidin-1-yl)ethoxy)-5-(trifluoromethyl) pyridine] | > 30 | 10 to 30 | > 30 | > 30
14 | CC1(Oc2ccc(Cl)cc2)CCN(CCOc2ccc(Cl)c(Cl)c2)C1 (stereo not drawn) [Compound 35, 3-(4-chlorophenoxy)-1-(2-(3,4-dichlorophenoxy)ethyl)-3-methyl pyrrolidine] | > 30 | < 0.1 | 1 to 10 | > 30
15 | Cc1ccccc1OCCN1CCC(C)(Oc2ccc(Cl)cc2)C1 (stereo not drawn) [Compound 6, 3-(4-chlorophenoxy)-3-methyl-1-(2-(o-tolyloxy)ethyl)pyrrolidine] | > 30 | > 30 | 1 to 10 | 0.1 to 1
16 | C[C@@]1(O)C[C@H]2CC[C@@H](C1)N2CCOc1ccccc1C(F)(F)F [Compound 196, (1R,3s,5S)-3-methyl-8-(2-(2-(trifluoromethyl)phenoxy)ethyl)-8-azabicyclo[3.2.1]octan-3-ol] | > 30 | > 30 | 10 to 30 | 1 to 10
17 | CC1(Oc2cccc(C(F)(F)F)c2)CCN(CCOc2cc(F)ccc2F)C1 (stereo not drawn) [Example 66, 1-(2-(2,5-difluorophenoxy)ethyl)-3-methyl-3-(3-(trifluoromethyl)phenoxy)pyrrolidine] | > 30 | < 0.1 | 1 to 10 | 10 to 30
18 | CC1(Oc2ccc(F)cc2)CCN(CCOc2ccccc2)C1 (stereo not drawn) [Example 51, 3-(4-fluorophenoxy)-3-methyl-1-(2-phenoxyethyl)pyrrolidine] | > 30 | < 0.1 | 0.1 to 1 | > 30
19 | CC1(Oc2ccc(Cl)cc2)CCN(CCOc2ccc3ccccc3c2)C1 (stereo not drawn) [Compound 31, 3-(4-Chlorophenoxy)-3-methyl-1-(2-(naphthalen-2-yloxy)ethyl) pyrrolidine] | > 30 | > 30 | 1 to 10 | 0.1 to 1
20 | CC1(Oc2ccccc2)CCN(CCCCOc2ccccc2)CC1 [Compound 121, 4-Methyl-4-phenoxy-1-(4-phenoxybutyl)piperidine] | 0.1 to 1 | < 0.1 | 1 to 10 | > 30
21 | CC1(Oc2ccc(Cl)cc2)CCN(CCCOc2ccccc2)C1 (stereo not drawn) [Compound 4, 3-(4-chlorophenoxy)-3-methyl-1-(3-phenoxypropyl)pyrrolidine] | > 30 | > 30 | 1 to 10 | 0.1 to 1
22 | CC1(Oc2ccc(Cl)cc2)CCN(CCOc2ccccc2F)C1 (stereo not drawn) [Compound 9, 3-(4-chlorophenoxy)-1-(2-(2-fluorophenoxy)ethyl)-3-methylpyrrolidine] | > 30 | < 0.1 | 0.1 to 1 | > 30
23 | CC1(Oc2ccc(Cl)cc2)CCN(CC(=O)Nc2ccccc2C(F)(F)F)CC1 [Compound 129, 2-(4-(4-chlorophenoxy)-4-methylpiperidin-1-yl)-N-(2-(trifluoromethyl)phenyl)acetamide] | > 30 | > 30 | > 30 | > 30

Results, then the compound that gave them:

Row | EC50 (human D2R/β-arrestin [1]) [µM] | EC50 (human D2R/β-arrestin [2]) [µM] | IC50 (human D2R/β-arrestin [3]) [µM] | IC50 (human D2R/β-arrestin [4]) [µM] | Structure (SMILES)
24 | > 30 | > 30 | 0.1 to 1 | 0.1 to 1 | CC1(O)CCN(CCCOc2ccccc2C(F)(F)F)CC1 [Compound 138, 4-methyl-1-(3-(2-(trifluoromethyl)phenoxy)propyl)piperidin-4-ol]
25 | 1 to 10 | < 0.1 | > 30 | > 30 | CC1(Oc2cccnc2)CCN(CCOc2ccccc2)C1 (stereo not drawn) [Example 58, 3-((3-methyl-1-(2-phenoxyethyl)pyrrolidin-3-yl)oxy)pyridine]
26 | > 30 | 1 to 10 | 10 to 30 | > 30 | CC(CO)N1CCC(C)(Oc2ccccc2)CC1 (stereo not drawn) [Example 81, 2-(4-Methyl-4-phenoxypiperidin-1-yl)propan-1-ol]
27 | > 30 | 0.1 to 1 | 10 to 30 | > 30 | CC1(N)CCN(C[C@H]2COc3ccccc3O2)CC1 [Compound 303, reference compound]
28 | < 0.1 | < 0.1 | 0.1 to 1 | > 30 | Cc1ccccc1OCCN1CCC(C)(Oc2ccccc2)CC1 [Example 69, 4-methyl-4-phenoxy-1-(2-(o-tolyloxy)ethyl)piperidine]
29 | > 30 | > 30 | < 0.1 | < 0.1 | CNC(=O)C1(C)CCN(CCOc2ccccc2C(F)(F)F)CC1 [Compound 198, N,4-dimethyl-1-(2-(2-(trifluoromethyl)phenoxy)ethyl)piperidine-4-carboxamide]
30 | > 30 | 1 to 10 | 1 to 10 | 1 to 10 | CC1(Oc2ccc(Cl)cc2)CCN(CCOc2ccc3c(c2)NC(=O)CC3)CC1 [Compound 166, 7-(2-(4-(4-chlorophenoxy)-4-methylpiperidin-1-yl)ethoxy)-3,4-dihydroquinolin-2(1H)-one]
31 | > 30 | < 0.1 | 1 to 10 | > 30 | CC1(Oc2ccccc2[N+](=O)[O-])CCN(CCOc2ccccc2)C1 (stereo not drawn) [Example 45, 3-methyl-3-(2-nitrophenoxy)-1-(2-phenoxyethyl)pyrrolidine]
32 | > 30 | > 30 | 10 to 30 | 1 to 10 | CC1(Oc2ccc(Cl)cc2)CCN(CCC(C)(O)c2ccccc2C(F)(F)F)CC1 (stereo not drawn) [Compound 117, 4-(4-(4-chlorophenoxy)-4-methylpiperidin-1-yl)-2-(2-(trifluoromethyl)phenyl)butan-2-ol]
33 | > 30 | 0.1 to 1 | 1 to 10 | > 30 | CNC(=O)C1(C)CCN(CCOc2ccccc2)CC1 [Compound 199, N, 4-dimethyl-1-(2-phenoxyethyl)piperidine-4-carboxamide]
